Numbers after ± are expanded uncertainties.
What was measured:
[1] = Molar enthalpy of transition or fusion; details: Crystal; DSC
[2] = molar heat capacity at constant pressure; details: 323.1 K; 101.33 kPa; Crystal; Small sample (50 mg) DSC
[3] = Crystal; DTA

Molar enthalpy of transition or fusion [1] | molar heat capacity at constant pressure [2] | Normal melting temperature [3] | SMILES
35.9 ± 0.8 kJ/mol | 906 ± 530 J/K/mol | 226.07 ± 2 °C | COc1ccc([C@@H]2CC(=O)c3c(O)cc(O)cc3O2)cc1O
39.8 ± 1 kJ/mol | 259.7 ± 32 J/K/mol | 250.00 ± 1.2 °C | O=C1CC(c2ccc(O)cc2)Oc2cc(O)cc(O)c21 (stereo not drawn) [4',5,7-trihydroxyflavanone]
39.2 ± 0.9 kJ/mol | 200.6 ± 110 J/K/mol | 285.00 ± 2.2 °C | O=c1cc(-c2ccccc2)oc2cc(O)cc(O)c12 [5,7-dihydroxyflavone]
49.8 ± 2.1 kJ/mol | 947.9 ± 30 J/K/mol | 198.00 ± 3 °C | O=c1c(O[C@@H]2O[C@H]([C@H](O)CO)[C@H](O)[C@H]2O)c(-c2ccc(O)c(O)c2)oc2cc(O)cc(O)c12 [isoquercitrin]
41.5 ± 1.4 kJ/mol | 585.9 ± 170 J/K/mol | 322.00 ± 1.4 °C | O=c1c(O)c(-c2ccc(O)c(O)c2)oc2cc(O)cc(O)c12 [quercetin]
82.3 ± 1.7 kJ/mol | 915 ± 160 J/K/mol | 177.00 ± 3 °C | C[C@@H]1O[C@@H](OC[C@H]2O[C@@H](Oc3c(-c4ccc(O)c(O)c4)oc4cc(O)cc(O)c4c3=O)[C@H](O)[C@@H](O)[C@@H]2O)[C@H](O)[C@H](O)[C@H]1O [rutin]

Reference: the NIST ThermoML archive (doi:10.1021/je7001094)
